Test results as given in PubChem BioAssay (NCI).
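Briefly, cells in 96-well plates were exposed to five compound concentrations for 48 h, and endpoints were estimated by linear interpolation. GI50 marks 50% less growth. TGI marks complete inhibition of growth.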

Columns and labels:
Assay in all cases: growth of human tumour cells (NCI), 48 h
HCC-2998 colon = tested on: HCC-2998 colon
CCRF-CEM leukemia = tested on: CCRF-CEM leukemia
CAKI-1 renal = tested on: CAKI-1 renal
SNB-75 CNS = tested on: SNB-75 CNS
UO-31 renal = tested on: UO-31 renal
OVCAR-5 ovarian = tested on: OVCAR-5 ovarian
RPMI-8226 leukemia = tested on: RPMI-8226 leukemia
ACHN renal = tested on: ACHN renal
UACC-257 melanoma = tested on: UACC-257 melanoma
HOP-62 NSCLC = tested on: HOP-62 NSCLC
A549 NSCLC = tested on: A549 NSCLC
SF-295 CNS = tested on: SF-295 CNS
OVCAR-4 ovarian = tested on: OVCAR-4 ovarian
UACC-62 melanoma = tested on: UACC-62 melanoma
K-562 leukemia = tested on: K-562 leukemia
NCI-H460 lung = tested on: NCI-H460 lung
U251 CNS = tested on: U251 CNS
MDA-MB-435 = tested on: MDA-MB-435
SF-539 CNS = tested on: SF-539 CNS
TK-10 renal = tested on: TK-10 renal
NCI/ADR-RES ovarian = tested on: NCI/ADR-RES ovarian
M14 melanoma = tested on: M14 melanoma
786-0 renal = tested on: 786-0 renal
HT29 colon = tested on: HT29 colon
MDA-MB-231 breast = tested on: MDA-MB-231 breast
IGROV1 ovarian = tested on: IGROV1 ovarian
SR leukemia = tested on: SR leukemia
BT-549 breast = tested on: BT-549 breast
MALME-3M melanoma = tested on: MALME-3M melanoma

COc1cc(OC)c(/C=C/c2cc[n+](C)c3ccccc23)c(OC)c1
GI50 (HCC-2998 colon): 2.46 µM | TGI (HCC-2998 colon): 13.9 µM | GI50 (CCRF-CEM leukemia): 2.71 µM | TGI (CCRF-CEM leukemia): > 100 µM | GI50 (CAKI-1 renal): 18.3 µM | TGI (CAKI-1 renal): > 100 µM | GI50 (SNB-75 CNS): 0.932 µM | TGI (SNB-75 CNS): 11.2 µM | GI50 (UO-31 renal): 17.3 µM | TGI (UO-31 renal): > 100 µM | GI50 (OVCAR-5 ovarian): 3.66 µM | TGI (OVCAR-5 ovarian): 38.7 µM | GI50 (RPMI-8226 leukemia): 0.648 µM | TGI (RPMI-8226 leukemia): 11.6 µM | GI50 (ACHN renal): 13.5 µM | TGI (ACHN renal): > 100 µM | GI50 (UACC-257 melanoma): 1.86 µM | TGI (UACC-257 melanoma): 5.98 µM | GI50 (HOP-62 NSCLC): 3.17 µM | TGI (HOP-62 NSCLC): 20.8 µM | GI50 (A549 NSCLC): 1.8 µM | TGI (A549 NSCLC): 54.6 µM | GI50 (SF-295 CNS): 0.702 µM | TGI (SF-295 CNS): 6.48 µM | GI50 (OVCAR-4 ovarian): 2.51 µM | TGI (OVCAR-4 ovarian): 23 µM | GI50 (UACC-62 melanoma): 1.58 µM | TGI (UACC-62 melanoma): 5.66 µM | GI50 (K-562 leukemia): 1 µM | TGI (K-562 leukemia): > 100 µM | GI50 (NCI-H460 lung): 0.98 µM | TGI (NCI-H460 lung): 5.85 µM | GI50 (U251 CNS): 0.536 µM | TGI (U251 CNS): 11.7 µM | GI50 (MDA-MB-435): 1.83 µM | TGI (MDA-MB-435): 7.37 µM | GI50 (SF-539 CNS): 2.14 µM | TGI (SF-539 CNS): 10.9 µM | GI50 (TK-10 renal): 3.54 µM | TGI (TK-10 renal): 18.1 µM | GI50 (NCI/ADR-RES ovarian): > 100 µM | TGI (NCI/ADR-RES ovarian): > 100 µM | GI50 (M14 melanoma): 2.88 µM | TGI (M14 melanoma): 15.8 µM | GI50 (786-0 renal): 4.4 µM | TGI (786-0 renal): 22.3 µM | GI50 (HT29 colon): 1.94 µM | TGI (HT29 colon): 7.28 µM | GI50 (MDA-MB-231 breast): 2.77 µM | TGI (MDA-MB-231 breast): 12.8 µM | GI50 (IGROV1 ovarian): 3.62 µM | TGI (IGROV1 ovarian): 25.9 µM | GI50 (SR leukemia): 1.92 µM | TGI (SR leukemia): > 100 µM | GI50 (BT-549 breast): 1.79 µM | TGI (BT-549 breast): 13.6 µM | GI50 (MALME-3M melanoma): 1.87 µM
